This assay deals with CD2F1 mice, L1210 leukemia ip, survival T/C. The experiment in a line: NCI In Vivo Anticancer Drug Screen. Data for tumor model L1210 Leukemia (intraperitoneal) in CD2F1 (CDF1) mice. As to conditions: higher = longer survival. Summed up: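 Each value reflects a quotient of treated over vehicle control outcomes in mice with a transplanted tumor.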
Where [1] appears, read: endpoint: mean survival time, dose: 75.0 mg/kg/injection, schedule: Q01DX001 (ip), vehicle: saline.
[2] abbreviates: endpoint: mean survival time, dose: 150.0 mg/kg/injection, schedule: Q01DX001 (ip), vehicle: saline.
Setting [3] is: endpoint: mean survival time, dose: 300.0 mg/kg/injection, schedule: Q01DX001 (ip), vehicle: saline.
Setting [4] is: endpoint: mean survival time, dose: 200.0 mg/kg/injection, schedule: Q01DX001 (ip), vehicle: saline with Tween-80.
Setting [5] is: endpoint: mean survival time, dose: 400.0 mg/kg/injection, schedule: Q01DX001 (ip), vehicle: saline with Tween-80.

Toxic doses and inconclusive results are not listed.

With `NC1CCCCC1N.Nc1c(N=Nc2ccc(-c3ccc(N=Nc4cc(S(=O)(=O)[O-])c5ccccc5c4N)cc3)cc2)cc(S(=O)(=O)[O-])c2ccccc12.[OH3+].[OH3+].[Pt+4]`, the T/C reads like this: (endpoint: median survival time, dose: 3.12 mg/kg/injection, schedule: Q04DX003 (ip), vehicle: saline with Tween-80) 108 % of control; (endpoint: median survival time, dose: 6.25 mg/kg/injection, schedule: Q04DX003 (ip), vehicle: saline with Tween-80) 100 % of control; (endpoint: median survival time, dose: 12.5 mg/kg/injection, schedule: Q04DX003 (ip), vehicle: saline with Tween-80) 102 % of control; (endpoint: median survival time, dose: 25.0 mg/kg/injection, schedule: Q04DX003 (ip), vehicle: saline with Tween-80) 98 % of control; (endpoint: median survival time, dose: 50.0 mg/kg/injection, schedule: Q04DX003 (ip), vehicle: saline with Tween-80) 106 % of control; (endpoint: median survival time, dose: 100.0 mg/kg/injection, schedule: Q04DX003 (ip), vehicle: saline with Tween-80) 97 % of control. The T/C (endpoint: median survival time, dose: 200.0 mg/kg/injection, schedule: Q04DX003 (ip), vehicle: saline with Tween-80) was 100 % of control.

For the compound `O=C(Nc1ccccc1[N+](=O)[O-])Oc1ccccc1`, the T/C is 96 % of control (endpoint: mean survival time, dose: 75.0 mg/kg/injection, schedule: Q04DX002 (ip), vehicle: saline with Tween-80); 96 % of control (endpoint: mean survival time, dose: 150.0 mg/kg/injection, schedule: Q04DX002 (ip), vehicle: saline with Tween-80); 96 % of control (endpoint: mean survival time, dose: 300.0 mg/kg/injection, schedule: Q04DX002 (ip), vehicle: saline with Tween-80).

On to `C[n+]1ccc(/C=C\Nc2ccccn2)cc1`, for which the T/C under setting [1] was 103 % of control and the T/C under setting [2] is 108 % of control.

For `CC(C(=O)O)C(C(=O)O)C(=O)O` (configuration not stated), the T/C (endpoint: mean survival time, dose: 100.0 mg/kg/injection, schedule: Q04DX003 (ip), vehicle: saline) is 93 % of control and the T/C (endpoint: mean survival time, dose: 200.0 mg/kg/injection, schedule: Q04DX003 (ip), vehicle: saline) is 96 % of control.

In the case of `N#C/C(=C/Cc1ccccc1)Nc1ccccc1`, the T/C is, setting by setting: (endpoint: mean survival time, dose: 100.0 mg/kg/injection, schedule: Q01DX009 (ip), vehicle: saline with Tween-80) 97 % of control; (endpoint: mean survival time, dose: 100.0 mg/kg/injection, schedule: Q04DX003 (ip), vehicle: saline sonified) 97 % of control; (endpoint: mean survival time, dose: 200.0 mg/kg/injection, schedule: Q01DX009 (ip), vehicle: saline with Tween-80) 101 % of control; (endpoint: mean survival time, dose: 200.0 mg/kg/injection, schedule: Q04DX003 (ip), vehicle: saline sonified) 97 % of control; (endpoint: mean survival time, dose: 400.0 mg/kg/injection, schedule: Q01DX009 (ip), vehicle: saline with Tween-80) 87 % of control; (endpoint: mean survival time, dose: 400.0 mg/kg/injection, schedule: Q04DX003 (ip), vehicle: saline sonified) 96 % of control.

As to `CSc1nccc2c1ncn2C1OC(CO)C(O)C1O` (configuration not stated), the T/C (endpoint: mean survival time, dose: 100.0 mg/kg/injection, schedule: Q01DX001 (ip), vehicle: saline) was 98 % of control; the T/C (endpoint: mean survival time, dose: 200.0 mg/kg/injection, schedule: Q01DX001 (ip), vehicle: saline) is 104 % of control; the T/C (endpoint: mean survival time, dose: 400.0 mg/kg/injection, schedule: Q01DX001 (ip), vehicle: saline) is 104 % of control.

`CC1=C2CCOC2=Nc2ccccc2O1`: the T/C by setting is: under setting [1], 109 % of control; under setting [2], 104 % of control; under setting [3], 97 % of control.

For `CCOC(=O)C1(C(=O)OCC)C2CC=CCC21` (configuration not stated), the T/C (endpoint: mean survival time, dose: 50.0 mg/kg/injection, schedule: Q01DX009 (ip), vehicle: acetone) was 100 % of control; the T/C (endpoint: mean survival time, dose: 100.0 mg/kg/injection, schedule: Q01DX009 (ip), vehicle: acetone) is 92 % of control; the T/C (endpoint: mean survival time, dose: 200.0 mg/kg/injection, schedule: Q01DX009 (ip), vehicle: acetone) is 97 % of control.

For `CCCCCCCCCCCCCCCOc1ccc(OCCCCCCCCCCCCCC)cc1`, the T/C reads like this: under setting [4], 89 % of control; under setting [5], 88 % of control.

With `C[n+]1cccc2cccc(C(=O)O)c21`, the T/C reads like this: (endpoint: mean survival time, dose: 37.5 mg/kg/injection, schedule: Q01DX009 (ip), vehicle: saline with Tween-80) 112 % of control; (endpoint: mean survival time, dose: 75.0 mg/kg/injection, schedule: Q01DX009 (ip), vehicle: saline with Tween-80) 109 % of control; (endpoint: mean survival time, dose: 150.0 mg/kg/injection, schedule: Q01DX009 (ip), vehicle: saline with Tween-80) 107 % of control.

`O=C(CBr)c1cccc(OC(=O)c2ccccc2)c1`: the T/C is, setting by setting: (endpoint: mean survival time, dose: 12.5 mg/kg/injection, schedule: Q01DX009 (ip), vehicle: saline with Tween-80) 100 % of control; (endpoint: mean survival time, dose: 12.5 mg/kg/injection, schedule: Q04DX003 (ip), vehicle: saline with Tween-80) 107 % of control; (endpoint: mean survival time, dose: 25.0 mg/kg/injection, schedule: Q01DX009 (ip), vehicle: saline with Tween-80) 100 % of control; (endpoint: mean survival time, dose: 25.0 mg/kg/injection, schedule: Q04DX003 (ip), vehicle: saline with Tween-80) 102 % of control; (endpoint: mean survival time, dose: 50.0 mg/kg/injection, schedule: Q04DX003 (ip), vehicle: saline with Tween-80) 113 % of control.

`COc1ccc(Cc2ccc(OC)c(OC)c2)cc1OC`: the T/C is 96 % of control (endpoint: median survival time, dose: 25.0 mg/kg/injection, schedule: Q01DX005 (ip), vehicle: saline with Tween-80); 100 % of control (endpoint: median survival time, dose: 25.0 mg/kg/injection, schedule: Q04DX003 (ip), vehicle: saline); 98 % of control (endpoint: median survival time, dose: 50.0 mg/kg/injection, schedule: Q01DX005 (ip), vehicle: saline with Tween-80); 100 % of control (endpoint: median survival time, dose: 50.0 mg/kg/injection, schedule: Q04DX003 (ip), vehicle: saline); 98 % of control (endpoint: median survival time, dose: 100.0 mg/kg/injection, schedule: Q01DX005 (ip), vehicle: saline with Tween-80); 100 % of control (endpoint: median survival time, dose: 100.0 mg/kg/injection, schedule: Q04DX003 (ip), vehicle: saline). Besides, the T/C is 97 % of control (endpoint: median survival time, dose: 200.0 mg/kg/injection, schedule: Q01DX005 (ip), vehicle: saline with Tween-80); 106 % of control (endpoint: median survival time, dose: 200.0 mg/kg/injection, schedule: Q04DX003 (ip), vehicle: saline); 95 % of control (endpoint: median survival time, dose: 400.0 mg/kg/injection, schedule: Q01DX005 (ip), vehicle: saline with Tween-80); 100 % of control (endpoint: median survival time, dose: 400.0 mg/kg/injection, schedule: Q04DX003 (ip), vehicle: saline).

`O=C(Sc1ccccc1)C(CO)c1ccccc1` (configuration not stated): the T/C is, setting by setting: (endpoint: mean survival time, dose: 25.0 mg/kg/injection, schedule: Q04DX002 (ip), vehicle: saline with Tween-80) 101 % of control; (endpoint: mean survival time, dose: 50.0 mg/kg/injection, schedule: Q04DX002 (ip), vehicle: saline with Tween-80) 101 % of control; (endpoint: mean survival time, dose: 100.0 mg/kg/injection, schedule: Q04DX002 (ip), vehicle: saline with Tween-80) 97 % of control.

As for `O=P(Cc1ccccc1)(Cc1ccccc1)c1ccccc1`, the T/C under setting [1] is 95 % of control, the T/C under setting [2] is 93 % of control and the T/C under setting [3] is 100 % of control.

Turning to `O/N=C/C1CCCC[N-]1.O/N=C/C1CCCC[N-]1.O/N=C/C1CCCC[N-]1.[Cu]` (configuration not stated), the T/C by setting is: (endpoint: median survival time, dose: 0.75 mg/kg/injection, schedule: Q03HX024 (ip), vehicle: saline) 95 % of control; (endpoint: median survival time, dose: 1.5 mg/kg/injection, schedule: Q03HX024 (ip), vehicle: saline) 95 % of control; (endpoint: median survival time, dose: 6.0 mg/kg/injection, schedule: Q03HX024 (ip), vehicle: saline) 104 % of control; (endpoint: median survival time, dose: 8.0 mg/kg/injection, schedule: Q03HX024 (ip), vehicle: saline) 179 % of control.

Regarding `NCc1cnc(N)nc1N`, the T/C is 98 % of control (endpoint: mean survival time, dose: 100.0 mg/kg/injection, schedule: Q04DX003 (ip), vehicle: saline with Tween-80) and 102 % of control (endpoint: mean survival time, dose: 200.0 mg/kg/injection, schedule: Q04DX003 (ip), vehicle: saline with Tween-80).

As for `COC(=O)COS(=O)(=O)c1ccc(C)cc1`, the T/C is 95 % of control (endpoint: mean survival time, dose: 100.0 mg/kg/injection, schedule: Q01DX001 (ip), vehicle: saline with Tween-80); 96 % of control under setting [4]; 100 % of control under setting [5].

For the compound `CN(C)CCC[n+]1cc2c3ccccc3c(N)cc2c2ccccc21`, the T/C runs as follows: (endpoint: mean survival time, dose: 3.13 mg/kg/injection, schedule: Q04DX003 (ip), vehicle: water) 103 % of control; (endpoint: mean survival time, dose: 6.25 mg/kg/injection, schedule: Q04DX003 (ip), vehicle: water) 106 % of control; (endpoint: mean survival time, dose: 12.5 mg/kg/injection, schedule: Q04DX003 (ip), vehicle: water) 103 % of control; (endpoint: mean survival time, dose: 25.0 mg/kg/injection, schedule: Q04DX003 (ip), vehicle: water) 109 % of control; (endpoint: mean survival time, dose: 50.0 mg/kg/injection, schedule: Q04DX003 (ip), vehicle: water) 109 % of control.

On to `CCOC(c1ccccc1)(c1ccccc1)c1ccccc1`, for which the T/C was 98 % of control (endpoint: mean survival time, dose: 100.0 mg/kg/injection, schedule: Q01DX009 (ip), vehicle: other); 102 % of control (endpoint: mean survival time, dose: 200.0 mg/kg/injection, schedule: Q01DX009 (ip), vehicle: other); 96 % of control (endpoint: mean survival time, dose: 400.0 mg/kg/injection, schedule: Q01DX009 (ip), vehicle: other).
